Data reported in ChEMBL document CHEMBL3714729, “Heterocyclic compounds for the inhibition of pask” (2012).

Target: PAS domain-containing serine/threonine-protein kinase (Homo sapiens, UniProt Q96RG2)
Experiment: Inhibition of human recombinant PASK using Ulight-peptide substrate incubated for 2 hrs by TR-FRET assay

PAS domain-containing serine/threonine-protein kinase, sequence (Q96RG2 whole entry, the tested form may be a part): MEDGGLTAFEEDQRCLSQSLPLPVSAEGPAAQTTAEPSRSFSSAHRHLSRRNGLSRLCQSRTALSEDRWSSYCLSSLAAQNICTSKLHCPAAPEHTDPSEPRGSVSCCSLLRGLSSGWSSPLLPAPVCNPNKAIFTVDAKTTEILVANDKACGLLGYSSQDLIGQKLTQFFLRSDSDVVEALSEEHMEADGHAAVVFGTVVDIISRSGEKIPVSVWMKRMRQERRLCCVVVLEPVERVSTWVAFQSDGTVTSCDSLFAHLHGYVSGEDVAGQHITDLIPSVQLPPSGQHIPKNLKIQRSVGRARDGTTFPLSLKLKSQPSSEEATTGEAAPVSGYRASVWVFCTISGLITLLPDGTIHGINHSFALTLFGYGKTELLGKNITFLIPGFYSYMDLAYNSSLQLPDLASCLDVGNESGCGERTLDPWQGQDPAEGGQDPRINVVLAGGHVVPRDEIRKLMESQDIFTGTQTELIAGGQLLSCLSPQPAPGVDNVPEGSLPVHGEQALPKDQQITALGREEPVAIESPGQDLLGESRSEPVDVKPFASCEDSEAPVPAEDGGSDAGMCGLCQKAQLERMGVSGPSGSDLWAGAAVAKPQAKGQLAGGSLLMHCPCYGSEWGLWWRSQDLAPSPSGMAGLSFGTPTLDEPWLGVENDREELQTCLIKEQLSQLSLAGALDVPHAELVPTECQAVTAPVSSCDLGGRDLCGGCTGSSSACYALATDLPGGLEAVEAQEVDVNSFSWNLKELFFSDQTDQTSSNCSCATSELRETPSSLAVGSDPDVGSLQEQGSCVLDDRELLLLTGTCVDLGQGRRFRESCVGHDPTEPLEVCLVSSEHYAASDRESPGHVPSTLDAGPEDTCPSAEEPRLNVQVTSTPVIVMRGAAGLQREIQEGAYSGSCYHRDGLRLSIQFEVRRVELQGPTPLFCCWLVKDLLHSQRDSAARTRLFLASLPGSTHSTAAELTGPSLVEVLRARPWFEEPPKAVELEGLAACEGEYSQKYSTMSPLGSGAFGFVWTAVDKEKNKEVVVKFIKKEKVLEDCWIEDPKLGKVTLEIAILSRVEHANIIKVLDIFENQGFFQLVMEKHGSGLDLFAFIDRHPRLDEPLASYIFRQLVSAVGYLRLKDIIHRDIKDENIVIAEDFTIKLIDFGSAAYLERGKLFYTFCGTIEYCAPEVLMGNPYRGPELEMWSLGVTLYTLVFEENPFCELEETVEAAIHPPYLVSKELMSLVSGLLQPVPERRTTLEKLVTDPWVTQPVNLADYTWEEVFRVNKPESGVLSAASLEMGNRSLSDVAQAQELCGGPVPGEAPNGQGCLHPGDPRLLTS

Compound | IC50
O=c1cc(-c2ccc3c(c2)OCCO3)[nH]c2c(-c3cccnc3)c(O)nn12 | ≤ 10 µM
O=c1cc(-c2ccccc2)[nH]c2c(-c3cccnc3)c(O)nn12 | ≤ 10 µM
CCC(=O)Nc1nn2c(=O)cc(-c3ccc4c(c3)OCO4)[nH]c2c1-c1ccccn1 | ≤ 10 µM
CNC(=O)Oc1ccc(-c2cc(=O)n3nc(C)c(-c4ccccn4)c3[nH]2)cc1 | ≤ 10 µM
Cc1nn2c(=O)cc(-c3ccc(O)cc3)[nH]c2c1-c1ccccc1 | ≤ 10 µM
O=c1cc(-c2ccc3c(c2)OCCO3)[nH]c2c(-c3ccc(Br)cc3)cnn12 | ≤ 10 µM
COc1ccc(-c2c(C)nn3c(=O)cc(-c4ccc5c(c4)OCCO5)[nH]c23)cc1 | ≤ 10 µM
O=c1cc(-c2ccc3c(c2)OCCO3)[nH]c2c(-c3ccc(F)cc3)cnn12 | ≤ 10 µM
O=c1cc(-c2ccc3[nH]nnc3c2)[nH]c2c(Cc3ccccc3)c(O)nn12 | ≤ 10 µM
O=C(O)c1cnn2c(=O)cc(-c3ccc4c(c3)OCCO4)[nH]c12 | ≤ 10 µM
CCCc1cnn2c(=O)cc(-c3ccc4c(c3)OCO4)[nH]c12 | ≤ 10 µM
CNC(=O)Oc1ccc(-c2cc(=O)n3ncc(-c4ccccn4)c3[nH]2)cc1 | ≤ 10 µM
COc1ccc(-c2c(C)nn3c(=O)cc(-c4ccc5ncccc5c4)[nH]c23)cc1 | ≤ 10 µM
COc1ccc(-c2cnn3c(=O)cc(-c4ccc5c(c4)OCCO5)[nH]c23)cc1 | ≤ 10 µM
Cn1ncc2cc(-c3cc(=O)n4ncc(-c5ccccn5)c4[nH]3)ccc21 | ≤ 10 µM
CCn1ncc2cc(-c3cc(=O)n4nc(NC(C)=O)c(-c5ccccn5)c4[nH]3)ccc21 | ≤ 10 µM
O=c1cc(-c2ccc3c(c2)OCCO3)[nH]c2c(-c3ccc(N4CCOCC4)nc3)cnn12 | ≤ 10 µM
O=C(c1cnn2c(=O)cc(-c3ccc4c(c3)OCCO4)[nH]c12)N1CCCC1 | ≤ 10 µM
Cc1nn2c(=O)cc(-c3ccc4[nH]nnc4c3)[nH]c2c1-c1ccc(Cl)cc1 | ≤ 10 µM
Cc1cc2cc(-c3cc(=O)n4ncc(-c5ccccn5)c4[nH]3)ccc2o1 | ≤ 10 µM
O=c1cc(-c2ccc(Cl)cc2)[nH]c2c(Cc3ccccc3)cnn12 | ≤ 10 µM
Cc1ccc(-c2cc(=O)n3ncc(-c4ccccn4)c3[nH]2)cc1 | ≤ 10 µM
N#Cc1c(O)nn2c(=O)cc(-c3ccc(Cl)cc3)[nH]c12 | ≤ 10 µM
O=c1cc(-c2ccc3c(c2)OCO3)[nH]c2c(Cc3ccccn3)cnn12 | ≤ 10 µM

Compound | IC50
CC(C)Oc1c(-c2cc(=O)n3ncc(-c4ccccn4)c3[nH]2)ccc2c1OCO2 | ≤ 10 µM
O=c1cc(-c2ccc(Cl)cc2Cl)[nH]c2c(-c3ccccn3)cnn12 | ≤ 10 µM
COc1nn2c(=O)cc(-c3ccc(Cl)cc3)[nH]c2c1C#N | ≤ 10 µM
O=c1cc(-c2ccc(C(F)(F)F)cc2)[nH]c2c(-c3ccccn3)cnn12 | ≤ 10 µM
O=c1cc(-c2cccc(F)c2)[nH]c2c(-c3ccccn3)cnn12 | ≤ 10 µM
O=c1cc(-c2ccc(F)cc2F)[nH]c2c(-c3ccccn3)cnn12 | ≤ 10 µM
Cc1nn2c(=O)cc(-c3ccc4ncccc4c3)[nH]c2c1-c1ccc(F)cc1 | ≤ 10 µM
Nc1nn2c(c1-c1ccccn1)CC(c1ccc3c(c1)OC(F)(F)O3)=CC2=O | ≤ 10 µM
O=c1cc(-c2ccccc2)[nH]c2c(-c3ccc(O)nc3)cnn12 | ≤ 10 µM
O=c1cc(-c2ccc3c(c2)OCCO3)[nH]c2c(-c3cccc(Cl)c3)cnn12 | ≤ 10 µM
CCCNC(=O)c1c(N)nn2c(=O)cc(-c3ccc4c(c3)OCO4)[nH]c12 | ≤ 10 µM
CS(=O)(=O)c1ccc(-c2cc(=O)n3ncc(-c4ccccn4)c3[nH]2)cc1 | ≤ 10 µM
O=c1cc(-c2ccc3[nH]nnc3c2)[nH]c2c(Cc3ccccc3)cnn12 | ≤ 10 µM
CCCNC(=O)c1c(O)nn2c(=O)cc(-c3ccc4[nH]nnc4c3)[nH]c12 | ≤ 10 µM
COc1cc(OC)cc(-c2cc(=O)n3ncc(-c4ccccn4)c3[nH]2)c1 | ≤ 10 µM
CCCNC(=O)c1c(N)nn2c(=O)cc(-c3ccc4c(c3)OCCO4)[nH]c12 | ≤ 10 µM
O=c1cc(-c2ccc(-c3nnco3)cc2)[nH]c2c(-c3ccccn3)cnn12 | ≤ 10 µM
Cc1c(-c2cc(=O)n3ncc(-c4ccccn4)c3[nH]2)ccc2c1OCO2 | ≤ 10 µM
Cc1nn2c(=O)cc(-c3ccc4[nH]ccc4c3)[nH]c2c1-c1ccccc1 | ≤ 10 µM
COc1ccc(-c2cnn3c(=O)cc(-c4ccccc4)[nH]c23)cn1 | ≤ 10 µM
O=c1cc(-c2ccccc2)[nH]c2c(-c3ccc(N4CCCCC4)nc3)cnn12 | ≥ 10 µM
CC(C)C(=O)Nc1nn2c(=O)cc(-c3ccc4c(c3)OCO4)[nH]c2c1-c1ccccn1 | ≤ 10 µM
Cn1nnc2cc(-c3cc(=O)n4ncc(-c5ccccn5)c4[nH]3)ccc21 | ≤ 10 µM
O=c1cc(-c2ccc(Cl)cc2F)[nH]c2c(-c3ccccn3)cnn12 | ≤ 10 µM

Continued, values first:

IC50 | Compound
≤ 10 µM | COc1cc2[nH]nnc2cc1-c1cc(=O)n2nc(O)c(-c3ccccn3)c2[nH]1
≤ 10 µM | Nc1nn2c(=O)cc(-c3ccc4occc4c3)[nH]c2c1-c1ccccn1
≤ 10 µM | COc1c(-c2cc(=O)n3nc(O)c(-c4ccccn4)c3[nH]2)ccc2[nH]nnc12
≤ 10 µM | O=c1cc(-c2ccc3[nH]nnc3c2)[nH]c2c(-c3ccccc3)c(O)nn12
≤ 10 µM | Cc1nn2c(=O)cc(-c3ccc4[nH]nnc4c3)[nH]c2c1-c1ccccn1
≤ 10 µM | CCc1nn2c(=O)cc(-c3ccc(Cl)cc3)[nH]c2c1-c1ccccn1
≤ 10 µM | Nc1nn2c(=O)cc(-c3ccc(F)cc3F)[nH]c2c1-c1ccccn1
≤ 10 µM | COc1nn2c(=O)cc(-c3ccc4c(c3)OCO4)[nH]c2c1-c1ccccn1
≤ 10 µM | Cc1n[nH]c2ccc(-c3cc(=O)n4nc(N)c(-c5ccccn5)c4[nH]3)cc12
≤ 10 µM | Cc1nn2c(=O)cc(-c3ccc4c(c3OC(C)C)OCO4)[nH]c2c1-c1ccccn1
≤ 10 µM | Cc1c(-c2cc(=O)n3nc(O)c(-c4ccccn4)c3[nH]2)ccc2c1OCO2
≤ 10 µM | CCc1nn2c(=O)cc(-c3ccc4c(cnn4C)c3)[nH]c2c1-c1ccccn1
≤ 10 µM | CCc1nn2c(=O)cc(-c3ccc4[nH]nnc4c3)[nH]c2c1-c1ccccc1
≤ 10 µM | COc1c(-c2cc(=O)n3nc(C)c(-c4ccccn4)c3[nH]2)ccc2[nH]nnc12
≤ 10 µM | Cc1c(-c2cc(=O)n3nc(N)c(-c4ccccn4)c3[nH]2)ccc2[nH]nnc12
≤ 10 µM | O=c1cc(-c2ccc3[nH]nnc3c2)[nH]c2c(-c3ccccn3)cnn12
≤ 10 µM | Nc1nn2c(=O)cc(-c3cc4ccccc4o3)[nH]c2c1-c1ccccn1
≤ 10 µM | CCC(=O)Nc1nn2c(=O)cc(-c3ccc4nn[nH]c4c3)[nH]c2c1-c1ccccn1
≤ 10 µM | Cc1c(-c2cc(=O)n3nc(O)c(-c4ccccn4)c3[nH]2)ccc2[nH]nnc12
≤ 10 µM | Cc1nn2c(=O)cc(-c3ccc4[nH]nnc4c3)[nH]c2c1Cc1ccccc1
≤ 10 µM | Cc1cc2[nH]nnc2cc1-c1cc(=O)n2ncc(-c3ccccn3)c2[nH]1

IC50 | Compound
≤ 10 µM | Cc1nn2c(=O)cc(-c3ccc4[nH]nnc4c3)[nH]c2c1-c1ccccc1
≤ 10 µM | Nc1nn2c(=O)cc(-c3ccc(Cl)c(Cl)c3)[nH]c2c1-c1ccccn1
≤ 10 µM | Cc1cc2[nH]nnc2cc1-c1cc(=O)n2nc(N)c(-c3ccccn3)c2[nH]1
≤ 10 µM | Cc1c(-c2cc(=O)n3nc(N)c(-c4ccccn4)c3[nH]2)ccc2c1OCO2
≤ 10 µM | Nc1nn2c(=O)cc(-c3ccc4[nH]nnc4c3)[nH]c2c1Cc1ccccc1
≤ 10 µM | Cc1cc2[nH]nnc2cc1-c1cc(=O)n2nc(O)c(-c3ccccn3)c2[nH]1
≤ 10 µM | Cc1cc2cc(-c3cc(=O)n4nc(N)c(-c5ccccn5)c4[nH]3)ccc2o1
≤ 10 µM | Cn1ncc2cc(-c3cc(=O)n4nc(N)c(-c5ccccn5)c4[nH]3)ccc21
≤ 10 µM | Cc1nn2c(=O)cc(-c3ccc4c(c3C)OCO4)[nH]c2c1-c1ccccn1
≤ 10 µM | COc1c(-c2cc(=O)n3ncc(-c4ccccn4)c3[nH]2)ccc2c1OCO2
≤ 10 µM | Cn1nnc2cc(-c3cc(=O)n4nc(N)c(-c5ccccn5)c4[nH]3)ccc21
≤ 10 µM | COc1c(-c2cc(=O)n3nc(N)c(-c4ccccn4)c3[nH]2)ccc2[nH]nnc12
≤ 10 µM | COc1cc(Cl)ccc1-c1cc(=O)n2ncc(-c3ccccn3)c2[nH]1
≤ 10 µM | Cc1nn2c(=O)cc(-c3ccc4[nH]nnc4c3C)[nH]c2c1-c1ccccn1
≤ 10 µM | CC(=O)Nc1nn2c(=O)cc(-c3ccc4[nH]nnc4c3)[nH]c2c1-c1ccccn1
≤ 10 µM | CCc1nn2c(=O)cc(-c3ccc4[nH]ncc4c3)[nH]c2c1-c1ccccn1
≤ 10 µM | Nc1nn2c(=O)cc(-c3cccc(F)c3)[nH]c2c1-c1ccccn1
≤ 10 µM | Nc1nn2c(=O)cc(-c3ccc(C(F)(F)F)cc3)[nH]c2c1-c1ccccn1
≤ 10 µM | Cc1coc2ccc(-c3cc(=O)n4nc(N)c(-c5ccccn5)c4[nH]3)cc12
≤ 10 µM | CC(=O)Nc1nn2c(=O)cc(-c3ccc4[nH]ncc4c3)[nH]c2c1-c1ccccn1
≤ 10 µM | Cc1n[nH]c2ccc(-c3cc(=O)n4ncc(-c5ccccn5)c4[nH]3)cc12

Target: Casein kinase II subunit alpha' (Homo sapiens, UniProt P19784)
Experiment: Inhibition of GST-tagged full-length purified human CK2a2 using RRRDDDSDDD substrate incubated for 120 mins in presence of [33P]ATP by scintillation counting based biochemical assay

Casein kinase II subunit alpha', sequence (P19784 whole entry): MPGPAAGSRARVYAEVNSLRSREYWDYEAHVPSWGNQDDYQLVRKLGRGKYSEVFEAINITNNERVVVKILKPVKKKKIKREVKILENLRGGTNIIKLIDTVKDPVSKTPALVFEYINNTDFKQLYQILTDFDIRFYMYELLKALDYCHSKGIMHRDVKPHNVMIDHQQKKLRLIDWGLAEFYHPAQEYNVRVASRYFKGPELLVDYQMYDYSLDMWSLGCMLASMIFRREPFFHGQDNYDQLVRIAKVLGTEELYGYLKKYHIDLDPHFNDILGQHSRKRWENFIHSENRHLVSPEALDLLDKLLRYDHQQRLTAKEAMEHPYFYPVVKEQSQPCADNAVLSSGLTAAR

Compound | IC50
O=c1cc(-c2ccc3c(c2)OCCO3)[nH]c2c(-c3cccnc3)cnn12 | ≤ 10 µM
O=c1cc(-c2ccc3c(c2)OCCO3)[nH]c2c(-c3ccccc3)cnn12 | ≤ 10 µM
O=c1cc(-c2ccc3c(c2)OCO3)[nH]c2c(-c3ccccn3)cnn12 | ≤ 10 µM
COc1ccc(-c2cc(=O)n3ncc(-c4ccc(F)cc4)c3[nH]2)cc1 | ≤ 10 µM
Cc1nn2c(=O)cc(-c3ccc4cc[nH]c4c3)[nH]c2c1Cc1ccccc1 | ≥ 10 µM
Cc1nn2c(=O)cc(-c3ccc4c(c3)CCO4)[nH]c2c1-c1ccccc1 | ≤ 10 µM
Cc1nn2c(=O)cc(-c3ccc4c(c3)OCCO4)[nH]c2c1-c1cccnc1 | ≤ 10 µM
Cc1nn2c(=O)cc(-c3ccc4c(c3)OCO4)[nH]c2c1-c1ccccc1 | ≤ 10 µM
O=c1cc(-c2ccc3c(c2)OCCO3)[nH]c2c(-c3ccccn3)cnn12 | ≤ 10 µM

The next lines start with the values.

IC50 | Compound
≤ 10 µM | Cc1nn2c(=O)cc(-c3ccc4c(c3)OCCO4)[nH]c2c1-c1ccccn1
≤ 10 µM | COc1ccc(-c2cc(=O)n3ncc(-c4ccccn4)c3[nH]2)cc1
≤ 10 µM | Cc1nn2c(=O)cc(-c3ccc4c(c3)OCO4)[nH]c2c1-c1ccccn1
